According to US20090176983A1, “Tenofovir Disoproxil Hemi-Fumaric Acid Co-Crystal” (ULTIMORPHIX TECHNOLOGIES B.V., priority 2007, published 2009):

Key:
[1] = Dynamic Vapour Sorption (DVS) moisture sorption isotherm; assay type: physicochemical; conditions: for total uptake of water vapours: DVS, 25° C., relative humidity 0% to 95% in steps of 5%, 1 h per step
Experimental: Moisture sorption isotherms were measured using a DVS-1 system of Surface Measurement Systems (London, UK). Differences in moisture uptake of various forms of a solid material indicate differences in the relative stabilities of the various solid forms for increasing relative humidity. The experiment was carried out at a constant temperature of 25° C.
A sample of about 11.5 mg of form TDFA 2:1 was spread in the DVS pan. The sample was dried at 0% RH for 7 h. Subsequently the relative humidity of the chamber was increased in steps of 5% units from 0% to 95% in order to monitor the sorption of water vapours. The samples remained in each of the steps for 1 h. Following, desorption was monitored by decreasing the relative humidity to 0% in steps of 5% units and remaining at each step for 1 h. The total uptake of water vapours was about 0.8%, which is line with the industry standard for hygroscopicity. In a similar DVS experiment using the starting material as purchased, the total vapour intake was about 4%, which is undesirable in formulation and requires additional measures.

[2] = Comparative pharmacokinetic study of TDFA 2:1 and ULT 1 (plasma tenofovir by LC-MS-MS); assay type: in vivo, Male wistar rats; conditions: rats, one capsule of approximately 15 mg by oral gavage; compared with fumarate salt form ULT 1; FIG. 5
Text: The plasma samples were further worked up for analysis by LC-MS-MS for their content of tenofovir. […] The concentration of tenofovir (the active metabolite of tenofovir DF) was quantified in each sample by means of LC-MS-MS against a calibration curve. From the PK data it is concluded that the hemifumarate co-crystal of tenofovir disoproxil, TDFA 2:1 is bioequivalent to the fumarate salt of tenofovir disoproxil form ULT 1, which is a commercially available fumarate salt of tenofovir disoproxil.

[3] = summary statement, versus Gilead 1

Compound	total uptake of water vapours [1]	changes in the structure by XRPD at the end of the DVS experiment ([1]; solid material after the sorption-desorption cycle, FIG. 4)	hygroscopicity compared with known crystalline form of tenofovir DF (Gilead 1) [1, 3]	stability compared with known crystalline form of tenofovir DF (Gilead 1) [1, 3]	bioequivalence from PK data (concentration of tenofovir in plasma) [2]
CC(C)OC(=O)OCOP(=O)(CO[C@H](C)Cn1cnc2c(N)ncnc21)OCOC(=O)OC(C)C.O=C(O)/C=C/C(=O)O [starting material, 9-[(R)-2-[[bis[[(isopropoxycarbonyl)oxy]methoxy]phosphinyl]-methoxy]propyl]adenine fumarate (1:1), reference compound]	about 4%				
co-crystal of tenofovir disoproxil and fumaric acid in a 2:1 molar ratio [TDFA 2:1]	about 0.8%	no any changes in the structure	less hygroscopic	more stable	bioequivalent
